Data: ChEMBL document CHEMBL1201862, “PubChem BioAssay data set” (2004)
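Grown in 96-well plates, cells were treated for 48 hours with each compound at five concentrations. Insufficient inhibition: endpoint recorded as highest concentration tested. GI50 is the concentration that inhibits growth by half.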 Active and inactive are the calls of the source. Cut-off read from the data, not from the text of the source: active = GI50 up to about 1.1 µM and inactive = higher.

How the values were obtained:
Assay in all cases: inhibition of tumour cell growth, NCI panel, 48 h
[1] = tested on: SN12C
[2] = tested on: UO-31
[3] = tested on: RPMI-8226
[4] = tested on: NCI-H23
[5] = tested on: CAKI-1
[6] = tested on: HT-29
[7] = tested on: SNB-19
[8] = tested on: SK-MEL-28
[9] = tested on: UACC-62
[10] = tested on: A498
[11] = tested on: HOP-62
[12] = tested on: SW-620
[13] = tested on: OVCAR-5
[14] = tested on: M19-MEL
[15] = tested on: IGROV-1
[16] = tested on: SK-MEL-5
[17] = tested on: NCI-H226
[18] = tested on: DMS-114
[19] = tested on: HL-60
[20] = tested on: EKVX
[21] = tested on: OVCAR-4
[22] = tested on: DLD-1
[23] = tested on: 786-0
[24] = tested on: ACHN
[25] = tested on: SNB-75
[26] = tested on: SK-OV-3
[27] = tested on: MOLT-4
[28] = tested on: OVCAR-8
[29] = tested on: XF498
[30] = tested on: LXFL 529
[31] = tested on: OVCAR-3
[32] = tested on: NCI-H460
[33] = tested on: SF-539
[34] = tested on: DMS-273
[35] = tested on: SF-295
[36] = tested on: CCRF-CEM
[37] = tested on: K562
[38] = tested on: A549
[39] = tested on: M14
[40] = tested on: KM-20L2
[41] = tested on: SK-MEL-2
[42] = tested on: COLO 205
[43] = tested on: HCC 2998
[44] = tested on: TK-10
[45] = tested on: NCI-H522
[46] = tested on: KM12
[47] = tested on: HCT-116
[48] = tested on: SF-268
[49] = tested on: Malme-3M
[50] = tested on: HCT-15
[51] = tested on: HOP-92
[52] = tested on: U-251
[53] = tested on: UACC-257
[54] = tested on: LOX IMVI
[55] = tested on: SR
[56] = tested on: HOP-18
[57] = tested on: SNB-78

Cc1cc(N(CCC#N)CCC#N)ccc1/C=C/C(=O)Nc1ccccc1Cl
GI50 [1]: > 100 µM (inactive) | GI50 [2]: > 100 µM (inactive) | GI50 [3]: > 100 µM (inactive) | GI50 [4]: > 100 µM (inactive) | GI50 [5]: > 100 µM (inactive) | GI50 [6]: > 100 µM (inactive) | GI50 [7]: > 100 µM (inactive) | GI50 [8]: > 100 µM (inactive) | GI50 [9]: > 100 µM (inactive) | GI50 [10]: > 100 µM (inactive) | GI50 [11]: > 100 µM (inactive) | GI50 [12]: > 100 µM (inactive) | GI50 [13]: > 100 µM (inactive) | GI50 [14]: > 100 µM (inactive) | GI50 [15]: > 100 µM (inactive) | GI50 [16]: > 100 µM (inactive) | GI50 [17]: > 100 µM (inactive) | GI50 [18]: > 100 µM (inactive) | GI50 [19]: 31.4 µM (inactive) | GI50 [20]: > 100 µM (inactive) | GI50 [21]: > 100 µM (inactive) | GI50 [22]: > 100 µM (inactive) | GI50 [23]: > 100 µM (inactive) | GI50 [24]: > 100 µM (inactive) | GI50 [25]: > 100 µM (inactive) | GI50 [26]: > 100 µM (inactive) | GI50 [27]: > 100 µM (inactive) | GI50 [28]: > 100 µM (inactive) | GI50 [29]: > 100 µM (inactive) | GI50 [30]: > 100 µM (inactive) | GI50 [31]: > 100 µM (inactive) | GI50 [32]: > 100 µM (inactive) | GI50 [33]: > 100 µM (inactive) | GI50 [34]: > 100 µM (inactive) | GI50 [35]: > 100 µM (inactive) | GI50 [36]: 45.5 µM (inactive) | GI50 [37]: > 100 µM (inactive) | GI50 [38]: > 100 µM (inactive) | GI50 [39]: > 100 µM (inactive) | GI50 [40]: > 100 µM (inactive) | GI50 [41]: > 100 µM (inactive) | GI50 [42]: > 100 µM (inactive) | GI50 [43]: > 100 µM (inactive) | GI50 [44]: > 100 µM (inactive) | GI50 [45]: > 100 µM (inactive) | GI50 [46]: > 100 µM (inactive) | GI50 [47]: > 100 µM (inactive) | GI50 [48]: > 100 µM (inactive) | GI50 [49]: > 100 µM (inactive) | GI50 [50]: > 100 µM | GI50 [51]: > 100 µM (inactive) | GI50 [52]: > 100 µM (inactive) | GI50 [53]: > 100 µM (inactive) | GI50 [54]: > 100 µM (inactive)

O=C(O)CN1CCSc2ccccc2CN(CC(=O)O)CCSc2ccccc2C1
GI50 [1]: > 100 µM (inactive) | GI50 [2]: > 100 µM (inactive) | GI50 [3]: > 100 µM (inactive) | GI50 [4]: > 100 µM (inactive) | GI50 [5]: > 100 µM (inactive) | GI50 [6]: > 100 µM (inactive) | GI50 [7]: > 100 µM (inactive) | GI50 [8]: > 100 µM (inactive) | GI50 [9]: > 100 µM (inactive) | GI50 [10]: > 100 µM (inactive) | GI50 [11]: > 100 µM (inactive) | GI50 [12]: > 100 µM (inactive) | GI50 [13]: > 100 µM (inactive) | GI50 [55]: 4.61 µM (inactive) | GI50 [14]: > 100 µM (inactive) | GI50 [56]: > 100 µM (inactive) | GI50 [15]: > 100 µM (inactive) | GI50 [16]: > 100 µM (inactive) | GI50 [19]: > 100 µM (inactive) | GI50 [20]: > 100 µM (inactive) | GI50 [22]: > 100 µM (inactive) | GI50 [23]: > 100 µM (inactive) | GI50 [24]: > 100 µM (inactive) | GI50 [25]: > 100 µM (inactive) | GI50 [26]: > 100 µM (inactive) | GI50 [28]: > 100 µM (inactive) | GI50 [30]: > 100 µM (inactive) | GI50 [31]: > 100 µM (inactive) | GI50 [32]: > 100 µM (inactive) | GI50 [33]: > 100 µM (inactive) | GI50 [34]: > 100 µM (inactive) | GI50 [35]: > 100 µM (inactive) | GI50 [36]: > 100 µM (inactive) | GI50 [37]: > 100 µM (inactive) | GI50 [38]: > 100 µM (inactive) | GI50 [39]: > 100 µM (inactive) | GI50 [40]: > 100 µM (inactive) | GI50 [41]: > 100 µM (inactive) | GI50 [42]: > 100 µM (inactive) | GI50 [43]: > 100 µM (inactive) | GI50 [44]: > 100 µM (inactive) | GI50 [45]: > 100 µM (inactive) | GI50 [46]: > 100 µM (inactive) | GI50 [47]: > 100 µM (inactive) | GI50 [48]: > 100 µM (inactive) | GI50 [57]: > 100 µM (inactive) | GI50 [49]: > 100 µM (inactive) | GI50 [50]: > 100 µM | GI50 [51]: > 100 µM (inactive) | GI50 [52]: > 100 µM (inactive) | GI50 [53]: > 100 µM (inactive) | GI50 [54]: > 100 µM (inactive)
